Experimental data reported in article PMC11996873, “Asparagine drives immune evasion in bladder cancer via RIG-I stability and type I IFN signaling” (The Journal of Clinical Investigation, 2025).

Target: T1, RIG-I (Homo sapiens, UniProt O95786)
T1 construct: gene RIGI
T1 sequence (O95786 1-925): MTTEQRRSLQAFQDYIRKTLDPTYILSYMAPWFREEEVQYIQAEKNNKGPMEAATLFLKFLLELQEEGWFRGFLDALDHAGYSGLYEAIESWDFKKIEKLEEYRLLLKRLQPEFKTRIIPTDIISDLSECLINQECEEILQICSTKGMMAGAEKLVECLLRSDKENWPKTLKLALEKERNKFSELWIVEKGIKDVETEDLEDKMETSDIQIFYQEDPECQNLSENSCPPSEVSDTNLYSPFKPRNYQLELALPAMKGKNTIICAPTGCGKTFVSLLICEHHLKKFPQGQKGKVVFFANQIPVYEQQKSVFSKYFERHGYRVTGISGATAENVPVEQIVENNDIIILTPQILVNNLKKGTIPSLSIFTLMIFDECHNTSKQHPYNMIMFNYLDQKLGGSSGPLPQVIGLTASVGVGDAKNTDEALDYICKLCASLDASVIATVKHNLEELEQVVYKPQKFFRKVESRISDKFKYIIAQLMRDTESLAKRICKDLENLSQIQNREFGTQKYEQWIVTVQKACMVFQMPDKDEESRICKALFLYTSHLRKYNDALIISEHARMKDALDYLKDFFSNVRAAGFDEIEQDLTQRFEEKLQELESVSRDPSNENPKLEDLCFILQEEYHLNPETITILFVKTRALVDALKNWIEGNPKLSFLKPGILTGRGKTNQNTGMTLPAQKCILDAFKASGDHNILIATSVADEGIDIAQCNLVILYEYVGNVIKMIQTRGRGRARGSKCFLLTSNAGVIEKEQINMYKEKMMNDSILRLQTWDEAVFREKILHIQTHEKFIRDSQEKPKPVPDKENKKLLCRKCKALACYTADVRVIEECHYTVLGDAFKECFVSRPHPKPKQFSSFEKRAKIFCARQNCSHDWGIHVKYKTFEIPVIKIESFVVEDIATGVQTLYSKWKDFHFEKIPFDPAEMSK
Experiment: microscale thermophoresis (Monolith NT.[…])
Type: binding

Kd: 303 µM
Structure (SMILES): NC(=O)C[C@H](N)C(=O)O [asparagine]
